According to ChEMBL document CHEMBL1140941 (J Med Chem, 2009):
Activity calls are given as the source filed them. No cut-off for these calls is given here.

Key:
[1] = target: T1, Androgen receptor (Homo sapiens) (UniProt P10275); experiment: Antagonist activity at gal-AR expressed in african green monkey CV1 cells co-expressing MH100 with GRIP1 co-factor at 10 uM by luciferase reporter gene assay; type: functional, cell-based; conditions: CV-1
T1 sequence (whole entry): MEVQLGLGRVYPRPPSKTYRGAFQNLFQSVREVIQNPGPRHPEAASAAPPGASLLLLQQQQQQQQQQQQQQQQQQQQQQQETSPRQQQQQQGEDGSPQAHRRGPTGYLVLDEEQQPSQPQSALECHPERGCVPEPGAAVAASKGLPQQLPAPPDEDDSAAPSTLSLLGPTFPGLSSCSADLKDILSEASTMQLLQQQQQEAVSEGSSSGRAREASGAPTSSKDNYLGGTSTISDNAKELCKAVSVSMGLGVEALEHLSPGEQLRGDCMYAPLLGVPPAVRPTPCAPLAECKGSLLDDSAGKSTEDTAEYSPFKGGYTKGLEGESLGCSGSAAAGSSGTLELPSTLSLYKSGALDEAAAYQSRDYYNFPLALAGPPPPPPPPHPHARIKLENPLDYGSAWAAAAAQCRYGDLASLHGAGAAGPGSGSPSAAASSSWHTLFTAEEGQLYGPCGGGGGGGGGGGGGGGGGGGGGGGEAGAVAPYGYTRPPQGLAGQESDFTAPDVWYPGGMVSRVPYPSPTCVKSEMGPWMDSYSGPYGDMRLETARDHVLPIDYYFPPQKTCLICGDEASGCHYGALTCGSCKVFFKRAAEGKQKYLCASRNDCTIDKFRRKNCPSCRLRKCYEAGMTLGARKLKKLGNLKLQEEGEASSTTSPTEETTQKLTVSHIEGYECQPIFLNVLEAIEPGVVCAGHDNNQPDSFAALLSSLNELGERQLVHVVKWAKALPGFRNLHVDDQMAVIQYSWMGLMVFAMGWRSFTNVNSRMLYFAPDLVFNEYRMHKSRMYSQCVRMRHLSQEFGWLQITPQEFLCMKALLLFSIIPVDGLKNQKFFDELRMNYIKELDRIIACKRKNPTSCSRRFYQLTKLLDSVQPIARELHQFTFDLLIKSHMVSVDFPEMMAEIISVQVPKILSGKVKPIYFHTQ

[2] = AUC (0 to t) in CD rat at 3 mg/kg, po; type: ADME, organism-based; parameters: dose 3 mg/kg, route oral; conditions: plasma
[3] = target: T2, Peroxisome proliferator-activated receptor delta (Homo sapiens) (UniProt Q03181); experiment: Agonist activity at PPARdelta expressed in african green monkey CV1 cells co-expressing MH100 up to 10 uM by luciferase reporter gene assay relative to control; type: functional, cell-based; conditions: CV-1
T2 sequence (whole entry): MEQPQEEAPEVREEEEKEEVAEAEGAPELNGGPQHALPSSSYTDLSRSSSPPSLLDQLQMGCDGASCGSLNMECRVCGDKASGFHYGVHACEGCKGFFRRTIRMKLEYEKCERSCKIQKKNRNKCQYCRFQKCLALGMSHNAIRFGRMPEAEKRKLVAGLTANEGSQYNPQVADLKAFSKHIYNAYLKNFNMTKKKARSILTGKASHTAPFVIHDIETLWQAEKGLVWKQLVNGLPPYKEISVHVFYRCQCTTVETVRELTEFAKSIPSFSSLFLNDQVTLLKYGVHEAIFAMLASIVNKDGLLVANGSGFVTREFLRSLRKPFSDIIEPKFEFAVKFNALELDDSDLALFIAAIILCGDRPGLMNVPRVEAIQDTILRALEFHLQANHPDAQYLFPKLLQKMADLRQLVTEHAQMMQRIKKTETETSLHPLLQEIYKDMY

[4] = Oral bioavailability in CD rat at 3 mg/kg; type: ADME, organism-based; conditions: in vivo
[5] = target: T2, Peroxisome proliferator-activated receptor delta (Homo sapiens); experiment: Antagonist activity at PPARdelta expressed in african green monkey CV1 cells co-expressing MH100 by luciferase reporter gene assay; type: functional, cell-based; conditions: CV-1
[6] = target: Retinoic acid receptor gamma (Homo sapiens) (UniProt P13631); experiment: Agonist activity at gal-RARgamma expressed in african green monkey CV1 cells co-expressing MH100 up to 10 uM by luciferase reporter gene assay relative to control; type: functional, cell-based; conditions: CV-1
[7] = target: T3, Mineralocorticoid receptor (Homo sapiens) (UniProt P08235); experiment: Agonist activity at gal-MR expressed in african green monkey CV1 cells co-expressing MH100 up to 10 uM by luciferase reporter gene assay relative to control; type: functional, cell-based; conditions: CV-1
T3 sequence (whole entry): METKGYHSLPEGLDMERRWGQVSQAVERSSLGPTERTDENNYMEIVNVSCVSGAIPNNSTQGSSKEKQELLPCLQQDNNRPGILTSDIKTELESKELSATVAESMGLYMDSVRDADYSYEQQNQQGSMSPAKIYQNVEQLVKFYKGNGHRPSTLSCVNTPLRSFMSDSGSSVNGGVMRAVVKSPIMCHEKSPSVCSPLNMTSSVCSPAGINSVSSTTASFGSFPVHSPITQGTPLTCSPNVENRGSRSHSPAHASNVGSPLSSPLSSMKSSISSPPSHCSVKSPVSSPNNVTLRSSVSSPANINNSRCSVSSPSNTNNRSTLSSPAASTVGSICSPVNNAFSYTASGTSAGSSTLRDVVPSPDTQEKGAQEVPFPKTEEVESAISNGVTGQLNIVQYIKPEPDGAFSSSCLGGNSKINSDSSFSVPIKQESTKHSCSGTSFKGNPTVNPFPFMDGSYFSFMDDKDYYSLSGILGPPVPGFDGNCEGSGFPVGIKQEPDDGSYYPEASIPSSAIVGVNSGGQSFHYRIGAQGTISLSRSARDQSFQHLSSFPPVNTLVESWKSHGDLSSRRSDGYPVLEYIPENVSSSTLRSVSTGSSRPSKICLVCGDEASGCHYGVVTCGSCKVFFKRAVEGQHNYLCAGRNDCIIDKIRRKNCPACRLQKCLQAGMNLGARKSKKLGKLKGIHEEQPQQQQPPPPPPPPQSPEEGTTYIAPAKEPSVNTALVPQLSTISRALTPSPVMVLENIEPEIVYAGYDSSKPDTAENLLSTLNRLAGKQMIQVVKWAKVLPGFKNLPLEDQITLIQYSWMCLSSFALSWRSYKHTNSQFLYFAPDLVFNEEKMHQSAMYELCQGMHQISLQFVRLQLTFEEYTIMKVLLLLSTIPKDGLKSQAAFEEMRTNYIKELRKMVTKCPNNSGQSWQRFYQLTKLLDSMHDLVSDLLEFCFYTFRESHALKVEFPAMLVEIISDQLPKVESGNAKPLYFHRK

Glucocorticoid receptor = Glucocorticoid receptor (Homo sapiens, UniProt P04150); experiment: Antagonist activity at gal-GR expressed in african green monkey CV1 cells co-expressing MH100 by luciferase reporter gene assay; type: functional, cell-based, CV-1
Estrogen receptor = Estrogen receptor (Homo sapiens, UniProt P03372); experiment: Antagonist activity at gal-ERalpha expressed in african green monkey CV1 cells co-expressing MH100 by luciferase reporter gene assay; type: functional, cell-based, CV-1
Estrogen receptor, sequence (P03372 whole entry): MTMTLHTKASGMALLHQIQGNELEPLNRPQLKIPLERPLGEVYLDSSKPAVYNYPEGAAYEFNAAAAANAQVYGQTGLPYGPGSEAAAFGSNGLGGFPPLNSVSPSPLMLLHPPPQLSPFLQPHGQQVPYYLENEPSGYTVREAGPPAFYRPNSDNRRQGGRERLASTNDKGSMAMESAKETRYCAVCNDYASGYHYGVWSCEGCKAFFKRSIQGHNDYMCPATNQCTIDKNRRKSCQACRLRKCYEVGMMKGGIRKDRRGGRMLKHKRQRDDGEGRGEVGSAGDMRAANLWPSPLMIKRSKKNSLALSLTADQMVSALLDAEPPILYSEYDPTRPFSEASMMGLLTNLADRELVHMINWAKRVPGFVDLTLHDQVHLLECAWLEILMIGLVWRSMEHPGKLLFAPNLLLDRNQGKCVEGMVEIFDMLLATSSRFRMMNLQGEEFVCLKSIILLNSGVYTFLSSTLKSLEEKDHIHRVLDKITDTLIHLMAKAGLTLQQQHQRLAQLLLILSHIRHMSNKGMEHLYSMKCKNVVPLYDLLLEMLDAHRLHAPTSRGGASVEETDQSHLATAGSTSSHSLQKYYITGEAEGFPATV

Glucocorticoid receptor, sequence (P04150 whole entry): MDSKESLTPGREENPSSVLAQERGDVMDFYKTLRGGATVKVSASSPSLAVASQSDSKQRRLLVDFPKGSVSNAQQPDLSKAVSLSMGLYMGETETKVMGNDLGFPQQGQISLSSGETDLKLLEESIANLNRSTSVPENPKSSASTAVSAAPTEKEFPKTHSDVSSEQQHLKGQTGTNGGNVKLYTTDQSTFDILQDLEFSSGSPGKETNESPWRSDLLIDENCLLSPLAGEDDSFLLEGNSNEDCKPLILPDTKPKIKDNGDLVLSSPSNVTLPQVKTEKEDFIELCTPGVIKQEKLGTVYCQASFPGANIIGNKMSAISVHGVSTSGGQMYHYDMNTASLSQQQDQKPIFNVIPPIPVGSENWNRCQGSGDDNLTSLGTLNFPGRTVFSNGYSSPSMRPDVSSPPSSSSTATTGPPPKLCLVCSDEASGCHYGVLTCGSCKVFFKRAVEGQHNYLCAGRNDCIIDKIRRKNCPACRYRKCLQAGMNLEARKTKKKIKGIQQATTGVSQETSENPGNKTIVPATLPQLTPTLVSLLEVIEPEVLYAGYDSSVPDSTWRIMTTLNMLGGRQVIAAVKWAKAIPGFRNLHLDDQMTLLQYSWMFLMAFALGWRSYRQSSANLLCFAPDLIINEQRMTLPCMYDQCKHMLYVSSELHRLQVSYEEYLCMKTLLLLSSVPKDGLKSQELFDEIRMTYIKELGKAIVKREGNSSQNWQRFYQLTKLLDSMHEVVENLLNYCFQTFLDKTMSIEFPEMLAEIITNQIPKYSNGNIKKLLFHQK
Retinoic acid receptor gamma (Homo sapiens), sequence (P13631 whole entry): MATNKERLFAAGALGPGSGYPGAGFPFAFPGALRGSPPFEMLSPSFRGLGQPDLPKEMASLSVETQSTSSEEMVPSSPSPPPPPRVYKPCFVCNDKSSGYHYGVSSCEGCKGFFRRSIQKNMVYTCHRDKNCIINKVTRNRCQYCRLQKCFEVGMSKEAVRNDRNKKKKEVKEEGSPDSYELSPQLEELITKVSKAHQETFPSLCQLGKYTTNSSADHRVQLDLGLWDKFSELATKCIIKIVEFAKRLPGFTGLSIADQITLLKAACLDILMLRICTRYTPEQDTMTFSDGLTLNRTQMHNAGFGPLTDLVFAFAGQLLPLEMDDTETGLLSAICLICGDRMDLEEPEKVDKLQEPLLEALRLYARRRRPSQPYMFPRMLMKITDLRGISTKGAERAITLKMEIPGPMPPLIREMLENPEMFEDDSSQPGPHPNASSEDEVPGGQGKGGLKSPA

Compound: CC(C)OC(=O)C1=CN(C(=O)c2ccc(F)c(F)c2)CC(C)(C)c2c1[nH]c1ccccc21 [TUROFEXORATE ISOPROPYL]
- inhibition [1]: 26%
- AUC(0-t) [2]: 7 µM·h
- Activity [3]: inactive
- bioavailability [4]: 37.6%
- Activity [5]: inactive
- Activity [6]: inactive
- Activity [7]: inactive
- IC50 (Glucocorticoid receptor): 10 µM
- IC50 (Estrogen receptor): 10 µM
